The values that follow come from patent US4668782A, “Anhydrous crystalline or crystalline hemihydrate monohydrate or trihydrate of cephalosporin derivative” (Teijin Limited, priority 1984, dated 1987).

For orientation: solubility means the concentration that dissolves in the medium under given conditions. A high value points to a readily soluble substance. The MIC is the lowest concentration that inhibits growth of the organism. A high value points to weaker potency.

Data set [1] is classed as physicochemical. Conditions: sealed brown vials. The protocol: (2) The trihydrate, monohydrate, hemihydrate, and anhydride were sealed up in the brown vials respectively and stored at 85° C. and were analyzed by high performance liquid chromatography later. The result is shown in the following table (residuum percentage: %).
Another data set in a line: moisture uptake. The class given is physicochemical.
Data set [2] concerns Gram-positive and Gram-negative bacterials. Conditions: Japanese Laid-Open Patent Publication No. 219292/1984; cited from earlier work.
The next data set is described as follows: physchem. Conditions: water.
Data set [3] deals with various kinds of Gram-positive and Gram-negative bacterias. The data set is described as follows: antibacterial activity against Gram-positive and Gram-negative bacteria (general statement). The class given is cell-based.
Data set [4] has as its system Pseudomonas aeruginosa IFO 3445. The data set is described as follows: antibacterial activity, agar dilution plating method (MIC). The class given is cell-based. Conditions: IFO3445. The protocol: (§1) (ii) The antibacterial activity of the obtained amorphous substance was determined according to the ordinary agar dilution plating method (see the Chemotherapy, 23(8), 1 (1975), of Japan Chemotherapy Society).
On the technique in general: In agar dilution the substance is mixed into plates at graded concentrations.

Another data set concerns Typhoid bacillus 901. The data set is described as above. In kind it is cell-based. The protocol: as §1
Data set [5] relates to Staphylococcus aureus FDA 209 PJC-1. The data set is described as above. The class given is cell-based. Conditions: FDA209. The protocol:
as §1

For data set [6], the system named is Coliform bacillus NIHJ-JC-2. The data set is described as above. In kind it is cell-based. Conditions: NIHJJC2. The procedure: as §1
Another data set deals with Proteus vulgaris OX-19. The description is as above. In kind it is cell-based. Conditions: OX19. The protocol:
as §1

In data set [7] the test system is Aerobacter aerogenes ATCC 13048. Described as above. Conditions: Klebsiella aerogenes, ATCC13048. The class given is cell-based. The protocol:
as §1

The subject of data set [8] is Bacillus prodigiosus IAM 1184. Described as above. In kind it is cell-based. Conditions: IAM1184. The protocol: as §1

In brackets after ≈: the same amount, converted by molar mass. Where two headings read alike, the source gives them in different places.

Regarding `CO/N=C(\C(=O)N[C@@H]1C(=O)N2C(C(=O)[O-])=C(C[N+]34CCC(CC3)CC4)CS[C@H]12)c1csc(N)n1` [Amorphous substance, (6R,7R)-7-[(Z)-2-(2-aminothiazole-4-yl)-2-methoxyiminoacetoamido]-3-(1-quinuclidiniummethyl)-3-cephem-4-carboxylate], the residuum percentage in data set [1] (240 h) and in data set [1] (576 h) was 0% each time.

With `CO/N=C(\C(=O)N[C@@H]1C(=O)N2C(C(=O)[O-])=C(C[N+]34CCC(CC3)CC4)CS[C@H]12)c1csc(N)n1` [Anhydride, (6R,7R)-7-[(Z)-2-(2-aminothiazole-4-yl)-2-methoxyiminoacetoamido]-3-(1-quinuclidiniummethyl)-3-cephem-4-carboxylate], the “conversion upon being allowed to take up moisture” value (“conversion upon being allowed” for short) in the data set “moisture uptake” is given as “reversionally converted back to the original trihydrate”. In addition, the residuum percentage in data set [1] (240 h) was 97.5%; in [1] (576 h) it was 86.0%.

With `CO/N=C(\C(=O)N[C@@H]1C(=O)N2C(C(=O)[O-])=C(C[N+]34CCC(CC3)CC4)CS[C@H]12)c1csc(N)n1` [Hemihydrate, (6R,7R)-7-[(Z)-2-(2-aminothiazole-4-yl)-2-methoxyiminoacetoamido]-3-(1-quinuclidiniummethyl)-3-cephem-4-carboxylate], in “moisture uptake”, the “conversion upon being allowed” value is recorded as “reversionally converted back to the original trihydrate”. Further, the residuum percentage in data set [1] (240 h) is given as 98.3%; in data set [1] (576 h) it was 86.3%.

With `CO/N=C(\C(=O)N[C@@H]1C(=O)N2C(C(=O)[O-])=C(C[N+]34CCC(CC3)CC4)CS[C@H]12)c1csc(N)n1` [Monohydrate, (6R,7R)-7-[(Z)-2-(2-aminothiazole-4-yl)-2-methoxyiminoacetoamido]-3-(1-quinuclidiniummethyl)-3-cephem-4-carboxylate], the “conversion upon being allowed” value in “moisture uptake” is “reversionally converted back to the original trihydrate”. Besides, the residuum percentage in data set [1] (240 h) is 96.1%; in data set [1] (576 h) it was 85.5%.

As for `CO/N=C(\C(=O)N[C@@H]1C(=O)N2C(C(=O)[O-])=C(C[N+]34CCC(CC3)CC4)CS[C@H]12)c1csc(N)n1` [Trihydrate, (6R,7R)-7-[(Z)-2-(2-aminothiazole-4-yl)-2-methoxyiminoacetoamido]-3-(1-quinuclidiniummethyl)-3-cephem-4-carboxylate], the residuum percentage in data set [1] (240 h) is given as 97.0%; in data set [1] (576 h), 86.8%.

Regarding `CO/N=C(\C(=O)N[C@@H]1C(=O)N2C(C(=O)[O-])=C(C[N+]34CCC(CC3)CC4)CS[C@H]12)c1csc(N)n1` [cephalosporin derivative A, (6R,7R)-7-[(Z)-2-(2-aminothiazole-4-yl)-2-methoxyiminoacetoamido]-3-(1-quinuclidiniummethyl)-3-cephem-4-carboxylate], the antibacterial activity entry in [2] was “strong antibacterial activity”. This compound also showed a solubility in “physchem” of roughly 300 mg/mL (≈ 592000 µM).

For the compound `CO/N=C(\C(=O)N[C@@H]1C(=O)N2C(C(=O)[O-])=C(C[N+]34CCC(CC3)CC4)CS[C@H]12)c1nsc(N)n1` [cephalosporin derivative B, (6R,7R)-7-[(Z)-2-(5-amino-1-thia-2,4-diazole-3-yl)-2-methoxyiminoacetoamido]-3-(1-quinuclidiniummethyl)-3-cephem-4-carboxylate], in the data set “physchem”, the solubility is roughly 300 mg/mL (≈ 591000 µM). For the same compound, in [3], the antibacterial activity result was “strong antibacterial activity”. Also, the MIC in data set [4] turned out to be 0.4 µg/mL (≈ 0.788 µM); in the data set on Typhoid bacillus 901, 0.2 µg/mL (≈ 0.394 µM); in data set [5], 3.1 µg/mL (≈ 6.11 µM); in [6] it was 0.05 µg/mL (≈ 0.0985 µM); in the data set with Proteus vulgaris OX-19, 0.2 µg/mL (≈ 0.394 µM); in [7], 0.1 µg/mL (≈ 0.197 µM). In addition, the minimal inhibitory concentration (MIC) in data set [8] turned out to be 0.1 µg/mL (≈ 0.197 µM).
